Legend:
[1] = Diet induced obesity, body weight and body composition; type: in vivo, C57BL/6J mice
Description: 2-months old male C57BL/6J mice were ad libitum fed a 60% high-fat diet (HFD; Catalog #D12492, Research Diets, New Brunswick, N.J.) for 8 weeks and subsequently treated either with pegnenolone or vehicle. Homogeneous distribution of the animals in the 3 treatment groups was guaranteed by matching their body weight, fat mass and fasting glucose levels before the start of the pharmacological treatments.
Fat mass and lean mass were assessed in vivo using an EchoMRI analyzer (EchoMedical Systems, Houston, Tex.) before the mice were placed on the HFD, as well as immediately before and at the end of the chronic treatment with pregnegnolone or its vehicle.
In this example the inventors analyzed the ability of pregnenolone to inhibit the effects of CB1 activation in the context of obesity. The effects of pregnenolone on metabolic disorders were studied using the model of diet induced obesity (DIO) in mice. In this procedure animals are maintained on a high fat diet (60% of fat) which progressively induce obesity. After eight weeks on this diet which already induced overweight and excessive fat accumulation in these animals the treatment with pregnenolone was started for thirty days (once a day 2 mg/kg or 5 mg/kg, n=8).

AMPA receptors = experiment: AMPAR-mediated mEPSC in nucleus accumbens principal neurons; type: cell-based, mouse; conditions: pregnenolone 100 nM treated slices
[2] = Allopregnanolone and epiallopregnanolone in nucleus accumbens after high dose injection (GC/MS); type: in vivo, Wistar rats; conditions: 50 mg/kg; 30 min after the injections
Description: The capacity of a compound of the invention to be or not to be converted into active pregnenolone downstream derivatives may be evaluated by administering this compound, for example by injecting 50 mg/kg, to a rat, sacrificing the rat 30 min later, measuring the concentration of allopregnanolone and epiallopregnanolone in nucleus accumbens of rat by GC/MS and comparing these concentrations to allopregnanolone and epiallopregnanolone in a rat whose has been injected only a vehicle or pregnenolone.
The concentrations of allopregnanolone and epiallopregnanolone were measured in nucleus accumbens of individual animal by GC/MS 30 min after the injections.

CB1 receptor [3] = target: T1, CB1 receptor (Rattus norvegicus, UniProt P20272); experiment: THC-induced increase in food intake in ad libitum fed Wistar rats; type: in vivo; design: tissue Charles River Laboratories (France) (animals); host or cells: living Wistar rats, whole animal
T1 sequence (P20272 whole entry): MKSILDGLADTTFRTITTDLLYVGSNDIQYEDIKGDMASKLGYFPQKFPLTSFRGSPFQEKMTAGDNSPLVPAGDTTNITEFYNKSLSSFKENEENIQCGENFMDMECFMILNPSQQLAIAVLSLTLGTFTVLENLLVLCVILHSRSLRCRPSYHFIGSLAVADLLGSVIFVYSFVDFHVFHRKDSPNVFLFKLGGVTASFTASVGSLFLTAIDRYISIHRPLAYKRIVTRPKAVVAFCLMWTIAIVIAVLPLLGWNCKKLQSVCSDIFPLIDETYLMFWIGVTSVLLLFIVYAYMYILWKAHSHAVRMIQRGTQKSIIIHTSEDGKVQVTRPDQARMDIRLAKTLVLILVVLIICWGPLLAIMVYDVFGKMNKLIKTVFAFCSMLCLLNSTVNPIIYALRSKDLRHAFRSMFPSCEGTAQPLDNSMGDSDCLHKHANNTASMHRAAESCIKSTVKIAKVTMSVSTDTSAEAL
Description: (§1) Food intake was evaluated by measuring consumption of food in the home cages of the animals. For each animal, 50-100 g of standard laboratory chow (U.A.R., France) was placed in the cleaned home cage. The remaining amount of food was weighted 1 h later and the amount of food consumed calculated.

[4] = Plasmatic levels of pregnenolone and allopregnanolone after subcutaneous injection or Alzet minipumps; type: in vivo, mice
Description: Micro-osmotic pumps (Alzet Osmotis Pumps, Charles River, France) with a pump rate of 0.15 μl/hr (model 2006) were filled with pregnenolone dissolved in PEG300 (85%) and ethanol (15%) at a concentration of 125 or 250 mg/ml (corresponding respectively to a daily dose of 12 or 24 mg/kg body weight) and implanted subcutaneously after light anesthesia. All pumps were primed by soaking them in saline at 37° C. for 60 h before implantation.
The effects of pregnenolone administration on plasmatic levels of pregnenolone were compared (n=5 per group) when pregnenolone was administered subcutaneously (6 mg/kg) or by Alzet micro-osmotic pumps (Alzet Osmotis Pumps, Charles River, France, model 2006) that simulate an extended release formulations of pregnenolone. Thus, these mini pump implanted subcutaneously provide a steady release of pregnenolone. Two pregneolone concentrations were used 0.6 mg/kg/hour and 1 mg/kg/hour (10 times and six times lower than the dose administered subcutaneously). […] The half life of pregnenolone administered subcutaneously was quite short (half an hour) and the increase in allopregnanolone was maintained over one hour (FIG. 20). […] Also pregnenolone levels remained in the range of effective therapeutic doses over two weeks.

CB1 receptor [5] = target: CB1 receptor (Mus musculus, UniProt P47746); experiment: THC-induced increase in food intake in mice; type: in vivo; design: tissue Charles River Laboratories (France) (animals); host or cells: living mice, whole animal; conditions: for effect on THC-induced increase in food intake (hyperphagia) in mice: 24 h-food deprived C57B1/6 mice, THC 1 mg/kg, compound 2 mg/kg sc
CB1 receptor (Mus musculus, UniProt P47746), sequence (P47746 whole entry): as the sequence (P20272 whole entry) above, with E95D counted along it
Description: as §1
Other pregnenolone derivatives (Table 4) for which the metabolism in downstream active steroids was reduced were tested for their ability to inhibit: 1. effects of the THC-induced cannabinoid tetrade (decrease in body temperature and in locomotor activity, (THC 10 mg/kg, compounds 6 mg/kg 15-30 min before THC) that is recognized as a sound method to evaluate the activation of the CB1 receptor; 2. THC-induced increase in food intake a typical effect of CB1 activation (THC between 0.5 and 1 mg/kg, compounds between 2 and 4 mg/kg 30 min before THC); 3. the increase in TNFalpha induced by LPS, another effects typical of CB1 […] (compounds 6 mg/kg 15 min before LPS). For each compound and each test independent groups of animals were used (at least n=6 per compound/per test).

CB1 receptor [6] = target: T1, CB1 receptor; experiment: THC inhibition of AMPAR-mediated EPSC, patch clamp in nucleus accumbens slices; type: cell-based, rats; design: from tissue; host or cells: acute coronal brain slices, nucleus accumbens; conditions: slices pre-treated with Pregnenolone 100 nM
[7] = pregnenolone 5 mg/kg, magnetic resonance
[8] = Alzet minipump at 0.6 mg/kg/hour

CC(=O)[C@H]1CC[C@H]2[C@@H]3CC=C4C[C@@H](O)CC[C@]4(C)[C@H]3CC[C@]12C [Pregnenolone, 5-Pregnen-3β-ol-20-one]
effect on food intake in DIO model ([1]; high fat diet, food intake over 24 hours): did not modify food intake
effect on body weight ([1]; high fat diet, once a day 2 or 5 mg/kg for thirty days, effect after 15 days): decreased body weight
effect on fat mass [1, 7]: the increase in fat mass was suppressed
effect on lean mass [1, 7]: the decrease in lean mass was blunted
AMPAR-mediated mEPSC amplitude (AMPA receptors): 15.7±0.7 pA
AMPAR-mediated mEPSC decay time (AMPA receptors): 4.62 ± 0.06 ms
production of allopregnanolone and epiallopregnanolone in nucleus accumbens [2]: allopregnanolone and epiallopregnanolone increased
effect on THC-induced food intake in sated rats (CB1 receptor [3]; THC 0.5 mg/kg, pregnenolone 30 min before THC): dose-dependently decreased THC-induced food intake
effect on basal food intake (CB1 receptor [3]; pregnenolone 2 mg/kg, FIG. 3 A, B): did not significantly modified basal food intake
dose with statistically significant effect on THC-induced food intake (CB1 receptor [3]; sated rats, THC 0.5 mg/kg): 2 mg/kg
plasma allopregnanolone [4, 8]: did not increased allopregnanolone
plasmatic pregnenolone [4, 8]: increased in the range of the maximum increase observed after the subcutaneous injection
plasma allopregnanolone ([4]; Alzet minipump at 1 mg/kg/hour): allopregnanolone did not increase
pregnenolone plasmatic concentrations ([4]; Alzet minipump at 1 mg/kg/hour): at the double of what observed after 6 mg/kg
half life ([4]; administered subcutaneously): half an hour
half-life ([4]; mouse, in vivo): approximately 30 min
plasma allopregnanolone ([4]; pregnenolone subcutaneously at 6 mg/kg): induced an increase in allopregnanolone
duration of the increase in pregnenolone levels ([4]; subcutaneous injection): < 1 h
plasmatic levels of pregnenolone ([4]; subcutaneously at 6 mg/kg): around 100 ng/ml
effect on THC-induced increase in food intake (hyperphagia) in mice (CB1 receptor [5]): decreased THC-induced hyperphagia
effect on THC-induced increase in food intake (hyperphagia) in mice (CB1 receptor [5]; listed as pregnenolone): suppressed the increase in food intake
dose inhibiting THC-induced increase in food-intake (first effective dose) (CB1 receptor [5]; dose response in 24 h-food deprived mice, 0.5 mg/kg dose was ineffective): 1 mg/kg
inhibition of EPSC amplitude by THC (CB1 receptor [6]): 15.1±1.8 % of inhibition

From patent US10150793B2, “Antagonists of CB1 receptor” (INSERM (Institut National de la Santé et de la Recherche …, priority 2011, dated 2018)
